How the values were obtained:
vanilloid receptor (VR1) = target: T1, vanilloid receptor (VR1) (Homo sapiens, UniProt Q8NER1); assay: FLIPR Ca2+ influx assay on CHO K1 cells transfected with the VR1 gene (pharmacological method II); type: cell-based; conditions: table 4; capsaicin; read-out: Ki (human) Cap.
T1 construct: expressed in transfected cells; host or cells: CHO K1 cells (ECACC), stably transfected
Source text: In this FLIPR assay, the influx of Ca^2+ is quantified with the assistance of a Ca^2+-sensitive dye (type Fluo-4, Molecular Probes Europe BV, Leiden, Netherlands) in a Fluorescent Imaging Plate Reader (FLIPR, Molecular Devices, Sunnyvale, USA) as described below.
II. Functional Investigations on the Vanilloid Receptor (VR1)
The agonistic or antagonistic action of the substances to be investigated on the vanilloid receptor (VR1) may also be determined with the following assay. According to this assay, the influx of Ca^2+ through the channel is quantified with the assistance of a Ca^2+-sensitive dye (type Fluo-4, Molecular Probes Europe BV, Leiden, Netherlands) in a Fluorescent Imaging Plate Reader (FLIPR, Molecular Devices, Sunnyvale, USA).
Chinese hamster ovary cells (CHO K1 cells, European Collection of Cell Cultures (ECACC), Great Britain) are stably transfected with the VR1 gene. For functional investigations, these cells are plated out onto poly-D-lysine-coated, black 96 well plates with a clear bottom (BD Biosciences, Heidelberg, Germany) at a density of 25,000 cells/well. The cells are incubated overnight at 37° C. and 5% CO2 in a culture medium (Ham's Nutrient Mixture F12, 10 vol. % FCS (foetal calf serum), 18 μg/mL L-proline). On the following day, the cells are incubated with Fluo-4 (Fluo-4 2 μM, Pluronic F127 0.01 vol. %, Molecular Probes in HBSS (Hank's buffered saline solution), Gibco Invitrogen GmbH, Karlsruhe, Germany) for 30 minutes at 37° C. The plates are then washed 3 times with HBSS buffer and, after a further 15 minutes' incubation at room temperature, used for […] measurement in the FLIPR. […] Quantification proceeds by measuring the highest fluorescence intensity (FC, fluorescence counts) over time.
The FLIPR protocol comprises 2 additions of substance. The substances to be tested (10 μM) are firstly pipetted onto the cells and Ca^2+ influx is compared with the control (capsaicin 10 μM) (% activation relative to the Ca^2+ signal after addition of 10 μM of capsaicin). After 5 minutes' incubation, 100 nM of capsaicin are added and the influx of Ca^2+ is again determined.
The percentage inhibition in comparison with the maximum achievable inhibition with 10 μM capsaicin is calculated.

VR1/TRPV1 receptor = VR1/TRPV1 receptor (Homo sapiens, UniProt Q8NER1); assay: IC50 (human) after pH stimulus; type: cell-based; conditions: for IC50: table 4
[1] = read-out: inhibition in percent, IC50 (human) after pH stimulus

Sequence of VR1/TRPV1 receptor (Q8NER1 whole entry): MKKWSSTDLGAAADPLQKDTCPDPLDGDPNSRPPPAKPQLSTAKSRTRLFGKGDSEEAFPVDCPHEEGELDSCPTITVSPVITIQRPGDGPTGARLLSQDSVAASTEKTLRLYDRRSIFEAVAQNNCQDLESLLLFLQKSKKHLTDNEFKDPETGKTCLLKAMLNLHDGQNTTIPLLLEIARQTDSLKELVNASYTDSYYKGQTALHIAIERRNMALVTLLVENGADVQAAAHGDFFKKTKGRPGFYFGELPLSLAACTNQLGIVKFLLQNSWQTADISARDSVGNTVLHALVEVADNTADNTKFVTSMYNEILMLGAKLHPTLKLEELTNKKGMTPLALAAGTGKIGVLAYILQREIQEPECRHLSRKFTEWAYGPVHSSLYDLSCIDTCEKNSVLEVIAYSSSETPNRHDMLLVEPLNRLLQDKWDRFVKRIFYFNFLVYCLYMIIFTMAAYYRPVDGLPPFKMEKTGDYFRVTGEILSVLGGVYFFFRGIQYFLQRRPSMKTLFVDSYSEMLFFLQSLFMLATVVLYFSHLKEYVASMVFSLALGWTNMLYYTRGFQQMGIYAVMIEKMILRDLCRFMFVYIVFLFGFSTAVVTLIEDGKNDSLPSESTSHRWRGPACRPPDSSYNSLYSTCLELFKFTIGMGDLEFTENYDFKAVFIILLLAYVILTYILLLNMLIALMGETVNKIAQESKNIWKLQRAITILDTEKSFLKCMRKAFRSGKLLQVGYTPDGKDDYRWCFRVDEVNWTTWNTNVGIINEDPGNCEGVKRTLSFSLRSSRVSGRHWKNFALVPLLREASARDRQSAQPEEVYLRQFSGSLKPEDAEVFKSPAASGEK
T1 sequence (Q8NER1 whole entry): as above

Ki (vanilloid receptor (VR1)) | IC50 (VR1/TRPV1 receptor) | SMILES | also measured
1 nM | 146 nM | CCCCCc1nc(C(F)(F)F)ccc1CNC(=O)[C@@H](C)c1ccc(NS(C)(=O)=O)c(F)c1 [Example 144, (S)-2-(3-fluoro-4-methylsulfonamido-phenyl)-N-(2-pentyl-6-trifluoromethyl-pyridin-3-ylmethyl)-propionamide] | –
8.7 nM | – | CC1CCN(c2nc(C(F)(F)F)ccc2CNC(=O)C(C)c2ccc(NS(=O)(=O)C(C)C)c(F)c2)CC1 (centres unmarked) [Example 309, 2-[3-fluoro-4-(propan-2-sulfonylamino)-phenyl]-N-(4-methyl-6′-trifluoromethyl-3,4,5,6-tetrahydro-2H-[1,2′]bipyridinyl-3′-ylmethyl)-propionamide] | inhibition at 5 µM (VR1/TRPV1 receptor; [1]): 20%
11.5 nM | 1610 nM | CC(C)=Cc1nc(C(F)(F)F)ccc1CNC(=O)C(C)c1ccc(NS(C)(=O)=O)c(F)c1 (centres unmarked) [Example 273, 2-(3-fluoro-4-methylsulfonamido-phenyl)-N-[2-(2-methyl-propenyl)-6-trifluoromethyl-pyridin-3-ylmethyl]-propionamide] | –
23.9 nM | 325 nM | CCOCCOc1nc(C(C)(C)C)ccc1CNC(=O)C(C)c1ccc(NS(C)(=O)=O)c(F)c1 (centres unmarked) [Example 378, N-((6-tert-butyl-2-(2-ethoxyethoxy)pyridin-3-yl)methyl)-2-(3-fluoro-4-(methylsulfonamido)phenyl)propanamide] | –
0.6 nM | 43.4 nM | CC(C(=O)NCc1ccc(C(F)(F)F)nc1C1CCCCC1)c1ccc(NS(C)(=O)=O)c(F)c1 (centres unmarked) [Example 291, N-(2-cyclohexyl-6-trifluoromethyl-pyridin-3-ylmethyl)-2-(3-fluoro-4-methylsulfonamido-phenyl)-propionamide] | –
13.8 nM | – | CC(C(=O)NCc1ccc(C(F)(F)F)cc1N1CCN(C2CCCCC2)CC1)c1ccc(NS(C)(=O)=O)c(F)c1 (centres unmarked) [Example 319, N-[2-(4-cyclohexyl-piperazin-1-yl)-4-trifluoromethyl-benzyl]-2-(3-fluoro-4-methylsulfonamido-phenyl)-propionamide] | inhibition at 5 µM (VR1/TRPV1 receptor; [1]): 38%; inhibition at 10 µM (VR1/TRPV1 receptor; [1]): 54%
1 nM | 43 nM | CC/C=C\COc1nc(C(F)(F)F)ccc1CNC(=O)C(C)c1ccc(NS(C)(=O)=O)c(F)c1 (centres unmarked) [Example 299, 2-(3-fluoro-4-methylsulfonamido-phenyl)-N-(2-pent-2-enyloxy-6-trifluoromethyl-pyridin-3-ylmethyl)-propionamide] | –
25.6 nM | – | COc1ccc(-c2nc(C(F)(F)F)ccc2CNC(=O)C(C)c2ccc(NS(C)(=O)=O)c(F)c2)cc1OC (centres unmarked) [Example 326, N-[2-(3,4-dimethoxy-phenyl)-6-trifluoromethyl-pyridin-3-ylmethyl]-2-(3-fluoro-4-methylsulfonamido-phenyl)-propionamide] | inhibition at 10 µM (VR1/TRPV1 receptor; [1]): 66%
0.8 nM | 85 nM | CC(C(=O)NCc1ccc(C(F)(F)F)nc1C#Cc1ccccc1)c1ccc(NS(C)(=O)=O)c(F)c1 (centres unmarked) [Example 354, 2-(3-fluoro-4-methylsulfonamido-phenyl)-N-(2-phenylethynyl-6-trifluoromethyl-pyridin-3-ylmethyl)-propionamide] | –
0.4 nM | 76 nM | Cc1cc(-c2nc(C(F)(F)F)ccc2CNC(=O)C(C)c2ccc(NS(C)(=O)=O)c(F)c2)ccc1F (centres unmarked) [Example 278, 2-(3-fluoro-4-methylsulfonamido-phenyl)-N-[2-(4-fluoro-3-methyl-phenyl)-6-trifluoromethyl-pyridin-3-ylmethyl]-propionamide] | –
20.3 nM | 1190 nM | CC(C(=O)NCc1ccc(C(F)(F)F)nc1-c1ccc2cc[nH]c2c1)c1ccc(NS(C)(=O)=O)c(F)c1 (centres unmarked) [Example 275, 2-(3-fluoro-4-methylsulfonamido-phenyl)-N-[2-(1H-indol-6-yl)-6-trifluoromethyl-pyridin-3-ylmethyl]-propionamide] | –
2.8 nM | – | Cc1ccc(Oc2nc(C(F)(F)F)ccc2CNC(=O)C(C)c2ccc(NS(C)(=O)=O)c(F)c2)cc1 (centres unmarked) [Example 345, 2-(3-fluoro-4-methylsulfonamido-phenyl)-N-(2-p-tolyloxy-6-trifluoromethyl-pyridin-3-ylmethyl)-propionamide] | inhibition at 0.1 µM (VR1/TRPV1 receptor; @ 0.1 μM, read-out: inhibition in percent, IC50 (human) after pH stimulus): 3%; inhibition at 1 µM (VR1/TRPV1 receptor; @ 1 μM, ne = no effect, read-out: inhibition in percent, IC50 (human) after pH stimulus): 38%; inhibition at 5 µM (VR1/TRPV1 receptor; [1]): 45%
1.4 nM | 129 nM | CC1CCN(c2nc(C(F)(F)F)ccc2CNC(=S)C(C)c2ccc(NS(C)(=O)=O)c(F)c2)CC1 (centres unmarked) [Example 293, 2-(3-fluoro-4-methylsulfonamido-phenyl)-N-(4-methyl-6′-trifluoromethyl-3,4,5,6-tetrahydro-2H-[1,2′]bipyridinyl-3′-ylmethyl)-thiopropionamide] | –
78 nM | – | CCCCCc1nc(C(F)(F)F)ccc1CNC(=O)[C@H](C)c1ccc(NS(C)(=O)=O)c(F)c1 [Example 145, (R)-2-(3-fluoro-4-methylsulfonamido-phenyl)-N-(2-pentyl-6-trifluoromethyl-pyridin-3-ylmethyl)-propionamide] | inhibition at 10 µM (VR1/TRPV1 receptor; [1]): 49%
2.5 nM | 179 nM | CCCN(CCC)c1nc(C(C)(C)C)ccc1CNC(=O)C(C)c1ccc(NS(C)(=O)=O)c(F)c1 (centres unmarked) [Example 297, N-(6-tert-butyl-2-dipropylamino-pyridin-3-ylmethyl)-2-(3-fluoro-4-methylsulfonamido-phenyl)-propionamide] | –
3.4 nM | – | CC(C(=O)NCc1ccc(C(F)(F)F)nc1-c1ccc2c(c1)OCO2)c1ccc(NS(C)(=O)=O)c(F)c1 (centres unmarked) [Example 266, N-(2-benzo[1,3]dioxol-5-yl-6-trifluoromethyl-pyridin-3-ylmethyl)-2-(3-fluoro-4-methylsulfonamido-phenyl)-propionamide] | inhibition in percent, IC50 (human) after pH stimulus (VR1/TRPV1 receptor; @ 1 μM, ne = no effect): ne @ 1 μM
1.8 nM | 76.2 nM | CC(C(=O)NCc1ccc(C(F)(F)F)nc1CCc1ccc(F)cc1)c1ccc(NS(C)(=O)=O)c(F)c1 (centres unmarked) [Example 303, 2-(3-fluoro-4-methylsulfonamido-phenyl)-N-{2-[2-(4-fluoro-phenyl)-ethyl]-6-trifluoromethyl-pyridin-3-ylmethyl}-propionamide] | –
1 nM | 295 nM | CC1CCN(c2nc(C(F)F)ccc2CNC(=O)C(C)c2ccc(NS(C)(=O)=O)c(F)c2)CC1 (centres unmarked) [Example 315, N-(6′-difluoromethyl-4-methyl-3,4,5,6-tetrahydro-2H-[1,2′]bipyridinyl-3′-ylmethyl)-2-(3-fluoro-4-methylsulfonamido-phenyl)-propionamide] | –
0.5 nM | – | CCCCC(CCCC)Oc1nc(C(F)(F)F)ccc1CNC(=O)C(C)c1ccc(NS(C)(=O)=O)c(F)c1 (centres unmarked) [Example 352, N-[2-(1-butyl-pentyloxy)-6-trifluoromethyl-pyridin-3-ylmethyl]-2-(3-fluoro-4-methylsulfonamido-phenyl)-propionamide] | inhibition at 5 µM (VR1/TRPV1 receptor; [1]): 34%; inhibition at 10 µM (VR1/TRPV1 receptor; [1]): 61%
1.3 nM | 293 nM | CC(C(=O)NCc1ccc(C(F)(F)F)nc1OC1CCN(C(=O)OC(C)(C)C)CC1)c1ccc(NS(C)(=O)=O)c(F)c1 (centres unmarked) [Example 341, 4-(3-{[2-(3-fluoro-4-methylsulfonamido-phenyl)-propionylamino]-methyl}-6-trifluoromethyl-pyridin-2-yloxy)-piperidine-1-carbonic acid tert-butyl ester] | –
1.43 nM | 1090 nM | CC(C(=O)NCc1ccc(C(F)(F)F)nc1N1C[C@@H](C)O[C@@H](C)C1)c1ccc(NS(C)(=O)=O)c(F)c1 (some centres unmarked) [Example 311, N-[2-(2,6-dimethyl-morpholin-4-yl)-6-trifluoromethyl-pyridin-3-ylmethyl]-2-(3-fluoro-4-methylsulfonamido-phenyl)-propionamide] | –

SMILES | Ki (vanilloid receptor (VR1)) | IC50 (VR1/TRPV1 receptor) | also measured
CC(C(=O)NCc1ccc(C(F)(F)F)nc1OC1CCC(C(F)(F)F)CC1)c1ccc(NS(C)(=O)=O)c(F)c1 (centres unmarked) [Example 340, 2-(3-fluoro-4-methylsulfonamido-phenyl)-N-[6-trifluoromethyl-2-(4-trifluoromethyl-cyclohexyloxy)-pyridin-3-ylmethyl]-propionamide] | 1.2 nM | 279 nM | –
CC(C)COc1cc(C(F)(F)F)ccc1CNC(=O)C(C)c1ccc(NS(C)(=O)=O)c(F)c1 (centres unmarked) [Example 98, 2-(3-fluoro-4-methylsulfonamido-phenyl)-N-(2-isobutoxy-4-trifluoromethyl-benzyl)-propionamide] | 1.5 nM | 41 nM | –

Source: patent publication US8710233B2 (Gruenenthal GmbH, priority 2005, dated 2014)
